In patent US7989457B2 (Eli Lilly and Company, priority 2004, dated 2011):

Target: cloned human glucagon receptor (Homo sapiens, UniProt P47871)
Test: Glucagon Receptor (hGlucR) Binding Assay
Procedure: This plasmid DNA was transfected into 293 HEK cells and selec ted with 200 ug/mL Hygromycin.
Crude plasma membranes are prepared using cells from suspension culture. The cells are lysed on ice in hypotonic buffer containing 25 mM Tris HCL, pH 7.5, 1 mM MgCl2, DNAsel, 20 u/mL, and Roche Complete Inhibitors-without EDTA. The cell suspension is homogenized with a glass dounce homogenizer using a Teflon pestle for 25 strokes. The homogenate is centrifuged at 4° C. at 1800×g for 15 mins. The supernate is collected and the pellet is resuspended in hypotonic buffer and rehomogenized. The mixture is centrifuged at 1800×g for 15 mins. The second supernate is combined with the first supernate. The combined supernates are recentrifuged at 1800×g for 15 mins to clarify. The clarified supernate is transferred to high speed tubes and centrifuged at 25000×g for 30 minutes at 4° C. The membrane pellet is resuspended in homogenization buffer and stored as frozen aliquots at −80° C. freezer until needed.
The specific activity is 2200 Ci/mmol.
The binding buffer contains 25 mM Hepes, pH 7.4, 2.5 mM CaCl2, 1 mM MgCl2, 0.1% fatty acid free BSA, (ICN), 0.003% tween-20, and Roche Complete Inhibitors without EDTA. […] Test compounds are dissolved in DMSO and serially diluted in DMSO. […] Plates are read with a MicroBeta after 14 hours of settling time at room temp. […]

cloned human glucagon receptor, sequence (P47871 26-477): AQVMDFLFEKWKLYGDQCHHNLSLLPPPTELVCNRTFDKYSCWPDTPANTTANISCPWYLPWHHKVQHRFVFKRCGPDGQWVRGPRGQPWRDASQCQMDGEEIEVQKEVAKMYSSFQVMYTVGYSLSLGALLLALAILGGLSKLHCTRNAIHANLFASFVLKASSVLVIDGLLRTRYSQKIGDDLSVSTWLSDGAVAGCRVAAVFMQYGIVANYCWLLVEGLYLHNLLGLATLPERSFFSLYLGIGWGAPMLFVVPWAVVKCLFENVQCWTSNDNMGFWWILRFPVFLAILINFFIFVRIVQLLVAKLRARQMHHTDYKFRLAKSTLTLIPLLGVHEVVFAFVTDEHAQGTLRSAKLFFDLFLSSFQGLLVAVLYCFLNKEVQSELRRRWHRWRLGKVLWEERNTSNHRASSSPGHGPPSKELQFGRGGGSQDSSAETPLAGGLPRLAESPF

Compound: CCC(COc1ccc(C(=O)NCCC(=O)O)cc1)c1ccc(-c2ccc(C(F)(F)F)cc2)cc1 (racemic)
- Ki: 951 nM

Compound: CC(Oc1ccc(C(=O)NCCC(=O)O)cc1)c1ccc(-c2ccc(C(F)(F)F)cc2)nc1 (racemic)
- Ki: 801 nM
